Source: PubChem BioAssay AID2060604 (Molecular Pharmacology Branch, DTP, NCI, 2025)

Tested on: 379773-124-R-J2-PDC complex spheroids, viability % test/control
Experiment: Anticancer human tumor 379773-124-R-J2-PDC patient-derived endometrial carcinoma cell line growth inhibition [CLK]
Details: for IC50: curve of first compound; for viability, T/C: stronger effect = lower value
Description: A high-throughput screen of multi-cell type tumor spheroids was designed to identify active combinations of […] and targeted small molecules. Complex spheroids include a stromal component modeled by human endothelial cells (HUVEC) and fibroblasts modeled by human mesenchymal stem cells (MSCs). The concentration ranges selected for each drug and investigational agent were based upon clinically achievable concentrations if the clinical Cmax of the agent was known.
Compounds. The drugs and investigational agents: cirtuvivint (SM08502; NSC835563), CC-671 (NSC850746), vemurafenib (NSC761431), tapotoclax (NSC804041), sotorasib (NSC818433), adagrasib (NSC831453), MRTX-1133 (NSC836407), BAY2416964 (NSC825713), copanlisib (NSC816437), inavolisib (NSC800729), abemaciclib (NSC768073), osimertinib (NSC779217), entinostat (NSC756642), eltanexor (KPT-8602, NSC794443), venetoclax (NSC766270), ceralasertib (NSC777638), bortezomib (NSC756655), olaparib (NSC753686), talazoparib (NSC767125), alisertib (NSC759677), peposertib (NSC802822), gemcitabine (NSC613327), 5-fluorouracil (NSC19893), SN-38 (NSC673596), oxaliplatin (NSC266046), paclitaxel (NSC125973), and doxorubicin (NSC123127), were obtained from the National Cancer Institute (NCI) Developmental Therapeutics Program Chemical Repository. The FDA-approved anticancer drug set is available from the Developmental Therapeutics Program at https://dtp.cancer.gov/organization/dscb/obtaining/available plates.htm. […] The stock solutions were prepared in dimethyl sulfoxide (DMSO, Sigma-Aldrich, St. Louis, MO, cat. D2650), except for the platinum complexes which were prepared in saline (Quality Biological, Gaithersburg, MD, cat. 114-055-101), at 800-fold the tested concentration and stored at -70 degrees C prior to their use. All drugs and investigational agents were tested over a range starting from a high concentration at or near the clinical Cmax and decreasing in half-log increments. If the clinical Cmax for an agent had not been determined, the highest concentration tested was 10 microM.
Cell Culture. All cells were maintained in an incubator at 37 degrees C and 5% CO2 with 95% humidity. The PDC lines were cultured according to standard operating procedures established by the NCI PDMR. Briefly, all PDCs were thawed and cultured in Matrigel-coated flasks prepared with a working solution of 1X Ham's F-12 nutrient mix, without supplementation (Invitrogen, Waltham, MA, cat. 11765054), 100 U/mL penicillin-streptomycin (Invitrogen, cat. 15140122), and 2.5% Matrigel (Corning Inc., Corning, NY, cat. 354248) for the first three passages. The 947758-054-R-J2-PDC line was cultured in 6B/Colon 1A media, which includes advanced DMEM/F-12 (Thermo Fisher Scientific, cat. 12634028), 10 mM HEPES (Thermo Fisher Scientific, cat. 15630080), 1X GlutaMAX supplement (Thermo Fisher Scientific, cat. 35050061), 0.1 mg/mL primocin (InvivoGen, cat. ant-pm-2), 10% defined fetal bovine serum, heat inactivated (HyClone Laboratories Inc., cat. SH30070.03HI), 1.25 mM N-Acetyl-L-cysteine (Sigma-Aldrich, cat. A9165), 10 mM nicotinamide (Sigma-Aldrich, cat. N0636), 1X B-27 supplement (Thermo Fisher Scientific, cat. 17504044), 1X N-2 supplement (Thermo Fisher Scientific, cat. 17502048), and 10 microM Y-27632 dihydrochloride (Tocris Bioscience, cat. 1254). The 876862-298-R-J1-PDC was cultured in 6E media, which includes all 6B/Colon 1A media components plus 50% L-WRN conditioned media (ATCC, cat. CRL-3276), 50 ng/mL recombinant human EGF recombinant protein (hEGF; Thermo Fisher Scientific, cat. PHG0311), 10 ng/mL recombinant human fibroblast growth factor 10 (hGFG-10; PeproTech, cat. 100-26), 1 ng/mL recombinant human fibroblast growth factor 2 (hFGF-2; PeproTech, cat. 100-18B), and 1 µM prostaglandin E2 (PGE2; Tocris, cat. 2296). The 227483-062-R1-J1-PDC line was cultured in Panc media, containing all 6E components except hFGF-2, with the addition of 500 nM SB-431542 (Selleckchem, cat. S1067) and 10 nM gastrin (Tocris, cat. 3006). […]

[1] = second compound 0.0316 µM, first compound 0.0316 µM
[2] = second compound 0.0316 µM, first compound 0.1 µM
[3] = second compound 0.0316 µM, first compound 0.316 µM
[4] = second compound 0.0316 µM, first compound 1 µM
[5] = second compound 0.0316 µM, first compound 3.16 µM
[6] = second compound 0.0316 µM, first compound 10 µM
[7] = second compound 0.1 µM, first compound 0.0316 µM
[8] = second compound 0.1 µM, first compound 0.1 µM
[9] = second compound 0.1 µM, first compound 0.316 µM
[10] = second compound 0.1 µM, first compound 1 µM
[11] = second compound 0.1 µM, first compound 3.16 µM
[12] = second compound 0.1 µM, first compound 10 µM
[13] = second compound 0.316 µM, first compound 0.0316 µM
[14] = second compound 0.316 µM, first compound 0.1 µM
[15] = second compound 0.316 µM, first compound 0.316 µM
[16] = second compound 0.316 µM, first compound 1 µM
[17] = second compound 0.316 µM, first compound 3.16 µM
[18] = second compound 0.316 µM, first compound 10 µM
[19] = second compound 1 µM, first compound 0.0316 µM
[20] = second compound 1 µM, first compound 0.1 µM
[21] = second compound 1 µM, first compound 0.316 µM
[22] = second compound 1 µM, first compound 1 µM
[23] = second compound 1 µM, first compound 3.16 µM
[24] = second compound 1 µM, first compound 10 µM
[25] = second compound 3.16 µM, first compound 0.0316 µM
[26] = second compound 3.16 µM, first compound 0.1 µM
[27] = second compound 3.16 µM, first compound 0.316 µM
[28] = second compound 3.16 µM, first compound 1 µM
[29] = second compound 3.16 µM, first compound 3.16 µM
[30] = second compound 3.16 µM, first compound 10 µM
[31] = second compound 10 µM, first compound 0.0316 µM
[32] = second compound 10 µM, first compound 0.1 µM
[33] = second compound 10 µM, first compound 0.316 µM
[34] = second compound 10 µM, first compound 1 µM
[35] = second compound 10 µM, first compound 3.16 µM
[36] = second compound 10 µM, first compound 10 µM
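Note: compound exposure lasted seven days before the viability readout.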
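Throughout, for viability, T/C: 100% = DMSO vehicle control wells.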

Q: Which results are given for `C=C(F)C(=O)N1CCN(c2nc(OCC3CCCN3C)nc3c2CCN(c2cccc4cccc(Cl)c24)C3)CC1CC#N` (centres undefined) + CN1CCN(c2cc(C(=O)Nc3cc4cc(-c5cnn(C)c5)ccc4cn3)ccn2)CC1?
A: IC50 (second compound 0.0316 µM): 4620 nM; IC50 (second compound 0.1 µM): 2700 nM; IC50 (second compound 0.316 µM): < 31.6 nM; IC50 (second compound 1 µM): < 31.6 nM; IC50 (second compound 3.16 µM): < 31.6 nM; IC50 (second compound 10 µM): < 31.6 nM; viability, T/C [1]: 87.9%; viability, T/C [2]: 86%; viability, T/C [3]: 86%; viability, T/C [4]: 88.7%; viability, T/C [5]: 73.9%; viability, T/C [6]: 1.28%; viability, T/C [7]: 85.8%; viability, T/C [8]: 72.8%; viability, T/C [9]: 90.9%; viability, T/C [10]: 79.5%; viability, T/C [11]: 45.3%; viability, T/C [12]: 1%; viability, T/C [13]: 28.3%; viability, T/C [14]: 36.7%; viability, T/C [15]: 31.8%; viability, T/C [16]: 37.5%; viability, T/C [17]: 13.6%; viability, T/C [18]: 0.93%; viability, T/C [19]: 0.49%; viability, T/C [20]: 0.17%; viability, T/C [21]: 0.3%; viability, T/C [22]: 1.49%; viability, T/C [23]: 0.88%; viability, T/C [24]: 0.75%; viability, T/C [25]: 1.35%; viability, T/C [26]: 0.14%; viability, T/C [27]: 2.05%; viability, T/C [28]: 0.84%; viability, T/C [29]: 1.24%; viability, T/C [30]: 0.11%; viability, T/C [31]: 0.66%; viability, T/C [32]: 1.65%; viability, T/C [33]: 0.21%; viability, T/C [34]: 0.22%; viability, T/C [35]: 0.2%; viability, T/C [36]: 0.65%

Q: `CC(CO)NC(=O)c1cc(-c2ccc(Cl)cc2)nn(-c2cnn(C)c2)c1=O` (centres undefined) + CN1CCN(c2cc(C(=O)Nc3cc4cc(-c5cnn(C)c5)ccc4cn3)ccn2)CC1 was tested. Which IC50 (second compound 0.0316 µM) did it give?
A: > 10000 nM

Q: And the IC50 (second compound 0.1 µM)?
A: > 10000 nM

Q: And the IC50 (second compound 0.316 µM)?
A: < 31.6 nM

Q: And the IC50 (second compound 1 µM)?
A: < 31.6 nM

Q: What about the IC50 (second compound 3.16 µM) of the same molecule?
A: < 31.6 nM

Q: What about the IC50 (second compound 10 µM) of the same molecule?
A: < 31.6 nM

Q: And the viability, T/C [1]?
A: 100%

Q: What about the viability, T/C [2] of the same molecule?
A: 86.8%

Q: And the viability, T/C [3]?
A: 90.3%

Q: And the viability, T/C [4]?
A: 102%

Q: What about the viability, T/C [5] of the same molecule?
A: 102%

Q: And the viability, T/C [6]?
A: 66.5%

Q: What about the viability, T/C [7] of the same molecule?
A: 96.9%

Q: And the viability, T/C [8]?
A: 86.3%

Q: And the viability, T/C [9]?
A: 79.8%

Q: What about the viability, T/C [10] of the same molecule?
A: 105%

Q: What about the viability, T/C [11] of the same molecule?
A: 75.1%

Q: And the viability, T/C [12]?
A: 52.9%

Q: And the viability, T/C [13]?
A: 24.6%

Q: What about the viability, T/C [14] of the same molecule?
A: 27.9%

Q: And the viability, T/C [15]?
A: 33.9%

Q: What about the viability, T/C [16] of the same molecule?
A: 32.1%

Q: What about the viability, T/C [17] of the same molecule?
A: 32.6%

Q: And the viability, T/C [18]?
A: 24.4%

Q: And the viability, T/C [19]?
A: 0.57%

Q: And the viability, T/C [20]?
A: 0.17%

Q: What about the viability, T/C [21] of the same molecule?
A: 0.46%

Q: And the viability, T/C [22]?
A: 0.65%

Q: And the viability, T/C [23]?
A: 0.68%

Q: What about the viability, T/C [24] of the same molecule?
A: 0.88%

Q: What about the viability, T/C [25] of the same molecule?
A: 1.45%

Q: And the viability, T/C [26]?
A: 0.87%

Q: What about the viability, T/C [27] of the same molecule?
A: 0.16%

Q: What about the viability, T/C [28] of the same molecule?
A: 2.5%

Q: And the viability, T/C [29]?
A: 1.79%

Q: And the viability, T/C [30]?
A: 1.37%

Q: And the viability, T/C [31]?
A: 0.55%

Q: And the viability, T/C [32]?
A: 0.23%

Q: What about the viability, T/C [33] of the same molecule?
A: 0.2%

Q: What about the viability, T/C [34] of the same molecule?
A: 0.85%

Q: What about the viability, T/C [35] of the same molecule?
A: 0.23%

Q: What about the viability, T/C [36] of the same molecule?
A: 0.65%
